PubChem BioAssay (NCI)
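Results reflect a 48-hour exposure of cells in 96-well plates to compound at five concentrations. TGI: total growth inhibition.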

How the values were obtained:
Assay in all cases: NCI tumour cell line growth inhibition, 48 h
786-0 renal = system: 786-0 renal
A498 renal = system: A498 renal
A549 NSCLC = system: A549 NSCLC
ACHN renal = system: ACHN renal
BT-549 breast = system: BT-549 breast
CAKI-1 renal = system: CAKI-1 renal
CCRF-CEM leukemia = system: CCRF-CEM leukemia
COLO 205 colon = system: COLO 205 colon
DU-145 prostate = system: DU-145 prostate
EKVX NSCLC = system: EKVX NSCLC
HCT-116 colon = system: HCT-116 colon
HCT-15 colon = system: HCT-15 colon
HL-60(TB) leukemia = system: HL-60(TB) leukemia
HOP-62 NSCLC = system: HOP-62 NSCLC
HOP-92 NSCLC = system: HOP-92 NSCLC
HS 578T breast = system: HS 578T breast
HT29 colon = system: HT29 colon
IGROV1 ovarian = system: IGROV1 ovarian
K-562 leukemia = system: K-562 leukemia
KM12 colon = system: KM12 colon
LOX IMVI melanoma = system: LOX IMVI melanoma
M14 melanoma = system: M14 melanoma
MALME-3M melanoma = system: MALME-3M melanoma
MCF7 breast = system: MCF7 breast
MDA-MB-231 breast = system: MDA-MB-231 breast
MDA-MB-435 = system: MDA-MB-435
MDA-N = system: MDA-N
MOLT-4 leukemia = system: MOLT-4 leukemia
NCI-H226 lung = system: NCI-H226 lung
NCI-H23 lung = system: NCI-H23 lung
NCI-H460 lung = system: NCI-H460 lung
NCI-H522 lung = system: NCI-H522 lung
NCI/ADR-RES ovarian = system: NCI/ADR-RES ovarian
OVCAR-3 ovarian = system: OVCAR-3 ovarian
OVCAR-4 ovarian = system: OVCAR-4 ovarian
OVCAR-5 ovarian = system: OVCAR-5 ovarian
OVCAR-8 ovarian = system: OVCAR-8 ovarian
PC-3 prostate = system: PC-3 prostate
RPMI-8226 leukemia = system: RPMI-8226 leukemia
RXF 393 renal = system: RXF 393 renal
SF-268 CNS = system: SF-268 CNS
SF-295 CNS = system: SF-295 CNS
SF-539 CNS = system: SF-539 CNS
SK-MEL-2 melanoma = system: SK-MEL-2 melanoma
SK-MEL-28 melanoma = system: SK-MEL-28 melanoma
SK-MEL-5 melanoma = system: SK-MEL-5 melanoma
SK-OV-3 ovarian = system: SK-OV-3 ovarian
SN12C renal = system: SN12C renal
SNB-19 CNS = system: SNB-19 CNS
SNB-75 CNS = system: SNB-75 CNS
SR leukemia = system: SR leukemia
SW-620 colon = system: SW-620 colon
T-47D breast = system: T-47D breast
TK-10 renal = system: TK-10 renal
U251 CNS = system: U251 CNS
UACC-257 melanoma = system: UACC-257 melanoma
UACC-62 melanoma = system: UACC-62 melanoma
UO-31 renal = system: UO-31 renal
HCC-2998 colon = system: HCC-2998 colon

Cc1cc(C)c(S(=O)(=O)N(CCCN)OCCCON(CCCN)S(=O)(=O)c2c(C)cc(C)cc2C)c(C)c1 gave a TGI (786-0 renal) of 5.86 µM, a TGI (A498 renal) of 10.7 µM and a TGI (A549 NSCLC) of 3.3 µM. The TGI (ACHN renal) was 28.9 µM, the TGI (BT-549 breast) was 8.64 µM and the TGI (CAKI-1 renal) was 29.3 µM. For the same compound, the TGI (CCRF-CEM leukemia) was 16.8 µM, the TGI (COLO 205 colon) was 3.5 µM and the TGI (DU-145 prostate) was 3.15 µM. For the same compound, the TGI (EKVX NSCLC) was 19.4 µM, the TGI (HCT-116 colon) was 3.17 µM and the TGI (HCT-15 colon) was 34.8 µM. It also gave a TGI (HL-60(TB) leukemia) of 5.64 µM, a TGI (HOP-62 NSCLC) of 4.02 µM and a TGI (HOP-92 NSCLC) of 5.27 µM. It also gave a TGI (HS 578T breast) of 3.16 µM, a TGI (HT29 colon) of 3.22 µM and a TGI (IGROV1 ovarian) of 3.86 µM. The TGI (K-562 leukemia) was over 22.5 µM, the TGI (KM12 colon) was 3.79 µM and the TGI (LOX IMVI melanoma) was 3.11 µM. The TGI (M14 melanoma) was 3.21 µM, the TGI (MALME-3M melanoma) was 2.61 µM and the TGI (MCF7 breast) was 3.41 µM. For the same compound, the TGI (MDA-MB-231 breast) was 3.31 µM, the TGI (MDA-MB-435) was 4.21 µM and the TGI (MDA-N) was 3.51 µM. It also gave a TGI (MOLT-4 leukemia) of 10.7 µM, a TGI (NCI-H226 lung) of 7.66 µM and a TGI (NCI-H23 lung) of 4.66 µM. The TGI (NCI-H460 lung) was 3.18 µM, the TGI (NCI-H522 lung) was 2.88 µM and the TGI (NCI/ADR-RES ovarian) was 36.4 µM. It also gave a TGI (OVCAR-3 ovarian) of 4.26 µM, a TGI (OVCAR-4 ovarian) of 5.22 µM and a TGI (OVCAR-5 ovarian) of 5.86 µM. For the same compound, the TGI (OVCAR-8 ovarian) was 11 µM, the TGI (PC-3 prostate) was 3.45 µM and the TGI (RPMI-8226 leukemia) was 6.55 µM. The TGI (RXF 393 renal) was 15.7 µM, the TGI (SF-268 CNS) was 2.8 µM and the TGI (SF-295 CNS) was 21.4 µM. For the same compound, the TGI (SF-539 CNS) was 3.77 µM, the TGI (SK-MEL-2 melanoma) was 3.29 µM and the TGI (SK-MEL-28 melanoma) was 3.94 µM. It also gave a TGI (SK-MEL-5 melanoma) of over 42.8 µM, a TGI (SK-OV-3 ovarian) of 3.58 µM and a TGI (SN12C renal) of 13.6 µM. It also gave a TGI (SNB-19 CNS) of 3.17 µM, a TGI (SNB-75 CNS) of 3.29 µM and a TGI (SR leukemia) of 7.83 µM. The TGI (SW-620 colon) was 6.45 µM, the TGI (T-47D breast) was 3.36 µM and the TGI (TK-10 renal) was 16.5 µM. The TGI (U251 CNS) was 3.08 µM, the TGI (UACC-257 melanoma) was 3.44 µM and the TGI (UACC-62 melanoma) was 6.09 µM. It also gave a TGI (UO-31 renal) of 30.4 µM.
Work on COc1ccc(OC2OC(CO)C(OCc3ccccc3)C(OCc3ccccc3)C2OCc2ccccc2)cc1 (stereo not drawn) yielded a TGI (786-0 renal) of over 100 µM, a TGI (A498 renal) of over 100 µM and a TGI (A549 NSCLC) of over 100 µM. It also gave a TGI (ACHN renal) of over 100 µM, a TGI (BT-549 breast) of over 100 µM and a TGI (CAKI-1 renal) of over 100 µM. The TGI (CCRF-CEM leukemia) was over 100 µM, the TGI (COLO 205 colon) was over 100 µM and the TGI (DU-145 prostate) was over 100 µM. For the same compound, the TGI (EKVX NSCLC) was over 100 µM, the TGI (HCC-2998 colon) was over 100 µM and the TGI (HCT-116 colon) was over 100 µM. It also gave a TGI (HL-60(TB) leukemia) of over 100 µM, a TGI (HOP-62 NSCLC) of over 100 µM and a TGI (HS 578T breast) of over 100 µM. The TGI (HT29 colon) was over 100 µM, the TGI (IGROV1 ovarian) was over 100 µM and the TGI (K-562 leukemia) was over 100 µM. It also gave a TGI (KM12 colon) of over 100 µM, a TGI (LOX IMVI melanoma) of over 100 µM and a TGI (M14 melanoma) of over 100 µM. For the same compound, the TGI (MALME-3M melanoma) was over 100 µM, the TGI (MCF7 breast) was over 100 µM and the TGI (MDA-MB-231 breast) was over 100 µM. For the same compound, the TGI (MDA-MB-435) was over 100 µM, the TGI (MDA-N) was over 100 µM and the TGI (MOLT-4 leukemia) was 72.9 µM. The TGI (NCI-H226 lung) was over 100 µM, the TGI (NCI-H23 lung) was over 100 µM and the TGI (NCI-H460 lung) was over 100 µM. The TGI (NCI-H522 lung) was over 100 µM, the TGI (NCI/ADR-RES ovarian) was over 100 µM and the TGI (OVCAR-3 ovarian) was over 100 µM. For the same compound, the TGI (OVCAR-5 ovarian) was over 100 µM, the TGI (OVCAR-8 ovarian) was over 100 µM and the TGI (PC-3 prostate) was over 100 µM. For the same compound, the TGI (RPMI-8226 leukemia) was over 100 µM, the TGI (SF-268 CNS) was over 100 µM and the TGI (SF-295 CNS) was over 100 µM. The TGI (SF-539 CNS) was over 100 µM, the TGI (SK-MEL-2 melanoma) was over 100 µM and the TGI (SK-MEL-28 melanoma) was over 100 µM. For the same compound, the TGI (SK-MEL-5 melanoma) was over 100 µM, the TGI (SK-OV-3 ovarian) was over 100 µM and the TGI (SN12C renal) was over 100 µM. It also gave a TGI (SNB-19 CNS) of over 100 µM, a TGI (SNB-75 CNS) of over 100 µM and a TGI (SR leukemia) of over 100 µM. The TGI (SW-620 colon) was over 100 µM, the TGI (T-47D breast) was over 100 µM and the TGI (TK-10 renal) was over 100 µM. For the same compound, the TGI (U251 CNS) was over 100 µM, the TGI (UACC-257 melanoma) was over 100 µM and the TGI (UACC-62 melanoma) was over 100 µM. For the same compound, the TGI (UO-31 renal) was over 100 µM.
